Measured values published in patent publication US20240101531A1, “PYRIDINAMINE DERIVATIVES AND THEIR USE AS POTASSIUM CHANNEL MODULATORS” (Xenon Pharmaceuticals Inc., priority 2022, published 2024).
Where a name gives a salt, the structure may show the parent alone.

These compounds were tested against human KV7.2/KV7.3 (Homo sapiens (Human), UniProt O43525+O43526) (assay: Potassium flux assay (IPG-2 AM dye)). Settings: TREX HEK 293 or HEK 293 cells expressing human KV7.2/KV7.3; arithmetic mean values.
Type: cell-based
Excerpt: This potassium flux assay employs the cell-permeable, potassium-sensitive dye, IPG-2 AM, to quantify potassium ion flux through potassium channels.
In general, TREX HEK 293 or HEK 293 cells were stably transfected with either an inducible or non-inducible expression vector containing the full-length cDNA coding for the desired human KV7.2/KV7.3 or in combination with another full-length cDNA for a second desired human KV7 potassium channel. Potassium channel-expressing cell lines were induced with tetracycline (1 μg/mL), if required, and plated on 384-well poly-D-lysine (PDL)-coated plates in culture media (DMEM, containing 10% FBS and 1% L-glutamine). After overnight incubation, culture media was removed and cells were loaded with 5 μM IPG-2 AM dye for 1 hour in Assay buffer (140 mM NaCl, 20 mM RbCl, 2 mM CaCl2, 1 mM MgCl2, 10 mM HEPES (4-(2-hydroxyethyl)-1-piperazineethanesulfonic acid buffer), 10 mM glucose, adjusted with Tris to pH 7.4). Excess dye was removed, and cells incubated at room temperature for 20 minutes with or without test compound. A Hamamatsu FDSS μCell was used to perform a 1:1 addition of K challenge buffer (150 mM NaCl, 10 mM HEPES, 2 mM CaCl2, 10 mM KCl, 1 mM MgCl2, 10 mM glucose, adjusted with Tris to pH 7.4 for human KV7.2/KV7.3, and simultaneously read plates at excitation wavelength of 530 nm and emission wavelength of 558 nm. Non-potassium channel-mediated potassium influx was determined in the presence of DMSO, and maximal influx was determined in the presence of a known KV7.x channel modulator. For each test compound, a concentration response curve was generated with 16 concentrations points, 2-fold serial dilution starting at 30 μM and an EC50 value was determined.
`Clc1ccc(Nc2nccc3cc[nH]c23)cn1` [Example 14, N-(6-chloropyridin-3-yl)-1H-pyrrolo[2,3-c]pyridin-7-amine] was tested, and the EC50 was 1 to 10 µM.
`COc1cnc(Nc2ccc(Cl)nc2)c2[nH]ccc12` [Example 15, N-(6-chloropyridin-3-yl)-4-methoxy-1H-pyrrolo[2,3-c]pyridin-7-amine formate] gave an EC50 of 1 to 10 µM.
Work on `Clc1ccc(Nc2nccc3ccoc23)cn1` [Example 16, N-(6-chloropyridin-3-yl)furo[2,3-c]pyridin-7-amine formate] yielded an EC50 of 1 to 10 µM.
`Cc1csc2c(Nc3ccc(Cl)nc3)nccc12` [Example 17, N-(6-chloropyridin-3-yl)-3-methylthieno[2,3-c]pyridin-7-amine] showed an EC50 of 1 to 10 µM.
Work on `Fc1ccc2c(Nc3ccc(Cl)nc3)nccc2c1` [Example 18, N-(6-chloropyridin-3-yl)-6-fluoroisoquinolin-1-amine formate] yielded an EC50 of 1 to 10 µM.
Compound `COc1ccc2c(Nc3ccc(Cl)nc3)nccc2c1` [Example 19, N-(6-chloropyridin-3-yl)-6-methoxyisoquinolin-1-amine formate] has an EC50 of 1 to 10 µM.
`Cc1ccc2c(Nc3ccc(Cl)nc3)nccc2c1` [Example 20, N-(6-chloropyridin-3-yl)-6-methylisoquinolin-1-amine formate] showed an EC50 of 1 to 10 µM.
With `Clc1ccc2c(Nc3ccc(Cl)nc3)nccc2c1` [Example 21, 6-chloro-N-(6-chloropyridin-3-yl)isoquinolin-1-amine] the EC50 was 10 to 30 µM.
Compound `Fc1cccc2c(Nc3ccc(Cl)nc3)nccc12` [Example 22, N-(6-chloropyridin-3-yl)-5-fluoroisoquinolin-1-amine] has an EC50 of 1 to 10 µM.
For `Fc1ccc2c(Nc3cnc(Cl)nc3)nccc2c1` [Example 23, N-(2-chloropyrimidin-5-yl)-6-fluoroisoquinolin-1-amine], the EC50 was 1 to 10 µM.
In the case of `Cc1ncc(Nc2nccc3cc(OCC4CC4)ccc23)cn1` [Example 24, 6-(cyclopropylmethoxy)-N-(2-methylpyrimidin-5-yl)isoquinolin-1-amine], the EC50 is reported as 1 to 10 µM.
For `Cc1ncc(Nc2nccc3cc(OCC4CCOC4)ccc23)cn1` (stereo not shown) [Example 25, N-(2-methylpyrimidin-5-yl)-6-((tetrahydrofuran-3-yl)methoxy)isoquinolin-1-amine], the EC50 was 1 to 10 µM.
With `Cc1ncc(Nc2nccc3cc(OCC(F)F)ccc23)cn1` [Example 26, 6-(2,2-difluoroethoxy)-N-(2-methylpyrimidin-5-yl)isoquinolin-1-amine] the EC50 was 1 to 10 µM.
`Cc1ncc(Nc2nccc3cc(OCC4CCC(C)(C)O4)ccc23)cn1` (stereo not shown) [Example 27, 6-((5,5-dimethyltetrahydrofuran-2-yl)methoxy)-N-(2-methylpyrimidin-5-yl)isoquinolin-1-amine] showed an EC50 of 1 to 10 µM.
Compound `Cc1ccc(Nc2nccc3cc(OCC4CC4)ccc23)cn1` [Example 28, 6-(cyclopropylmethoxy)-N-(6-methylpyridin-3-yl)isoquinolin-1-amine] has an EC50 of 1 to 10 µM.
In the case of `CC(Oc1ccc2c(Nc3ccc(Cl)nc3)nccc2c1)C1CC1` (stereo not shown) [Example 29, N-(6-chloropyridin-3-yl)-6-(1-cyclopropylethoxy)isoquinolin-1-amine], the EC50 is reported as 1 to 10 µM.
For `Clc1ccc(Nc2nccc3occc23)cn1` [Example 30, N-(6-chloropyridin-3-yl)furo[3,2-c]pyridin-4-amine formate], the EC50 was 1 to 10 µM.
`Clc1ccc(Nc2nccc3cccnc23)cn1` [Example 31, N-(6-chloropyridin-3-yl)-1,7-naphthyridin-8-amine formate] gave an EC50 of 1 to 10 µM.
`Clc1ncc(Nc2nccc3cccnc23)cn1` [Example 32, N-(2-chloropyrimidin-5-yl)-1,7-naphthyridin-8-amine] showed an EC50 of 1 to 10 µM.
`Clc1ccc(Nc2nccc3ccccc23)cn1` [Example 33, N-(6-chloropyridin-3-yl)isoquinolin-1-amine] gave an EC50 of 1 to 10 µM.
`CS(C)(=O)=Nc1ccc2c(Nc3ccc(Cl)nc3)nccc2c1` [Example 34, ((1-((6-chloropyridin-3-yl)amino)isoquinolin-6-yl)imino)dimethyl-λ^6-sulfanone] was tested, and the EC50 was 1 to 10 µM.
`Cc1cnc(Nc2ccc(Cl)nc2)c2[nH]ccc12` [Example 35, N-(6-chloropyridin-3-yl)-4-methyl-1H-pyrrolo[2,3-c]pyridin-7-amine] showed an EC50 of 1 to 10 µM.
In the case of `COc1cc(Nc2nccc3cc(OCC4(C)COC4)ccc23)cnc1Cl` [Example 36, N-(6-chloro-5-methoxypyridin-3-yl)-6-((3-methyloxetan-3-yl)methoxy)isoquinolin-1-amine], the EC50 is reported as less than 1 µM.
With `COCCOc1ccc2c(Nc3cnc(C)nc3)nccc2c1` [Example 37, 6-(2-methoxyethoxy)-N-(2-methylpyrimidin-5-yl)isoquinolin-1-amine] the EC50 was 10 to 30 µM.
Compound `Cc1ncc(Nc2nccc3cc(OCCOC4CC4)ccc23)cn1` [Example 38, 6-(2-cyclopropoxyethoxy)-N-(2-methylpyrimidin-5-yl)isoquinolin-1-amine] has an EC50 of 10 to 30 µM.
Work on `Clc1ccc(Nc2nccc3cc(OCCOC4CC4)ccc23)cn1` [Example 39, N-(6-chloropyridin-3-yl)-6-(2-cyclopropoxyethoxy)isoquinolin-1-amine] yielded an EC50 of 1 to 10 µM.
Compound `N#CC12CC(COc3ccc4c(Nc5cnc(Cl)nc5)nccc4c3)(C1)C2` [Example 40, 3-(((1-((2-chloropyrimidin-5-yl)amino)isoquinolin-6-yl)oxy)methyl)bicyclo[1.1.1]pentane-1-carbonitrile] has an EC50 of less than 1 µM.
`CC(C)C1(COc2ccc3c(Nc4cnc(Cl)nc4)nccc3c2)COC1` [Example 41, N-(2-chloropyrimidin-5-yl)-6-((3-isopropyloxetan-3-yl)methoxy)isoquinolin-1-amine] gave an EC50 of less than 1 µM.
`CC1(COc2ccc3c(Nc4cnc(Cl)c(O)c4)nccc3c2)COC1` [Example 42, 2-chloro-5-((6-((3-methyloxetan-3-yl)methoxy)isoquinolin-1-yl)amino)pyridin-3-ol] was tested, and the EC50 was less than 1 µM.
With `FC(F)c1ccc(Nc2nccc3cc(OCC4(F)CC4)ccc23)cn1` [Example 43, N-(6-(difluoromethyl)pyridin-3-yl)-6-((1-fluorocyclopropyl)methoxy)isoquinolin-1-amine] the EC50 was no less than 30 µM.
`CCc1ncc(Nc2nccc3cc(OCC4(F)CC4)ccc23)cn1` [Example 44, N-(2-ethylpyrimidin-5-yl)-6-((1-fluorocyclopropyl)methoxy)isoquinolin-1-amine] gave an EC50 of 10 to 30 µM.
In the case of `Cc1ncc(Nc2nccc3cc(OCC4(F)CC4)ccc23)cc1Cl` [Example 45, N-(5-chloro-6-methylpyridin-3-yl)-6-((1-fluorocyclopropyl)methoxy)isoquinolin-1-amine], the EC50 is reported as no less than 30 µM.
Compound `COc1ncc(Nc2nccc3cc(OCC4(F)CC4)ccc23)cn1` [Example 46, 6-((1-fluorocyclopropyl)methoxy)-N-(2-methoxypyrimidin-5-yl)isoquinolin-1-amine] has an EC50 of 1 to 10 µM.
`FC1(COc2ccc3c(Nc4ccc(C(F)(F)F)nc4)nccc3c2)CC1` [Example 47, 6-((1-fluorocyclopropyl)methoxy)-N-(6-(trifluoromethyl)pyridin-3-yl)isoquinolin-1-amine] showed an EC50 of no less than 30 µM.
With `FC1(COc2ccc3c(Nc4cncc(Cl)c4)nccc3c2)CC1` [Example 48, N-(5-chloropyridin-3-yl)-6-((1-fluorocyclopropyl)methoxy)isoquinolin-1-amine] the EC50 was 1 to 10 µM.
Work on `FC1(COc2ccc3c(Nc4cncnc4)nccc3c2)CC1` [Example 49, 6-((1-fluorocyclopropyl)methoxy)-N-(pyrimidin-5-yl)isoquinolin-1-amine] yielded an EC50 of 1 to 10 µM.
`N#CC1(COc2ccc3c(Nc4ccc(Cl)nc4)nccc3c2)CCOCC1` [Example 50, 4-(((1-((6-chloropyridin-3-yl)amino)isoquinolin-6-yl)oxy)methyl)tetrahydro-2H-pyran-4-carbonitrile] gave an EC50 of less than 1 µM.
For `Clc1ccc(Nc2nccc3cc(OCc4ccncn4)ccc23)cn1` [Example 51, N-(6-chloropyridin-3-yl)-6-(pyrimidin-4-ylmethoxy)isoquinolin-1-amine], the EC50 was 1 to 10 µM.
In the case of `FC1(COc2ccc3c(Nc4ccc(Cl)nc4)nccc3c2)COC1` [Example 52, N-(6-chloropyridin-3-yl)-6-((3-fluorooxetan-3-yl)methoxy)isoquinolin-1-amine], the EC50 is reported as less than 1 µM.
`CN1C(=O)CCC1COc1ccc2c(Nc3ccc(Cl)nc3)nccc2c1` (stereo not shown) [Example 53, 5-(((1-((6-chloropyridin-3-yl)amino)isoquinolin-6-yl)oxy)methyl)-1-methylpyrrolidin-2-one] was tested, and the EC50 was 1 to 10 µM.
In the case of `COc1cc(Nc2nccc3cc(OCc4cnn(C)c4)ccc23)cnc1Cl` [Example 54, N-(6-chloro-5-methoxypyridin-3-yl)-6-((1-methyl-1H-pyrazol-4-yl)methoxy)isoquinolin-1-amine], the EC50 is reported as less than 1 µM.
Compound `COc1cc(Nc2nccc3cc(OCc4cnn(C)c4)ccc23)cnc1C` [Example 55, N-(5-methoxy-6-methylpyridin-3-yl)-6-((1-methyl-1H-pyrazol-4-yl)methoxy)isoquinolin-1-amine formate] has an EC50 of less than 1 µM.
`FC1(COc2ccc3c(Nc4cnc(Cl)nc4)nccc3c2)COC1` [Example 56, N-(2-chloropyrimidin-5-yl)-6-((3-fluorooxetan-3-yl)methoxy)isoquinolin-1-amine] was tested, and the EC50 was less than 1 µM.
